Test results published in paper PMC3280264 (PLoS ONE, 2012).

Biological target: T1, Human SGLT3 (Homo sapiens, UniProt Q9NY91)
T1 construct: expressed in transfected cells; host or cells: oocytes (from Nasco), injected with mRNA
T1 sequence (Q9NY91 1-659): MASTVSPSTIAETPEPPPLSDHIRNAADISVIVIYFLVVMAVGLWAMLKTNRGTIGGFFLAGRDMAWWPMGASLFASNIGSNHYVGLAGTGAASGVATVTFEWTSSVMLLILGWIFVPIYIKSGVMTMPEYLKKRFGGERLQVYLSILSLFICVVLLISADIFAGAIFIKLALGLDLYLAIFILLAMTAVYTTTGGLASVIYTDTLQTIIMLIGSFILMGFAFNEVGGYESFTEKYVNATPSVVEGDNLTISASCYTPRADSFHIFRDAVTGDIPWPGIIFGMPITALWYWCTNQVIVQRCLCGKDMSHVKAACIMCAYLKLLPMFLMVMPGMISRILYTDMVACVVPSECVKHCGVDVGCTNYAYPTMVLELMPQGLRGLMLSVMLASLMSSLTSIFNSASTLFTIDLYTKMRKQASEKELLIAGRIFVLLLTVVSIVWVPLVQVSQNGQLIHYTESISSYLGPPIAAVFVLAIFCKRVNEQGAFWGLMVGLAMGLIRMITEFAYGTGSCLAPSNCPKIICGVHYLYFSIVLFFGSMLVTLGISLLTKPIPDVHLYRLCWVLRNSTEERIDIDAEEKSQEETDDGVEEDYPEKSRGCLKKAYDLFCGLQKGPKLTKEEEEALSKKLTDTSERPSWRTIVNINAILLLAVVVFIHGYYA
Assay: Two-electrode voltage clamp recording of oocytes expressing human SGLT3 (DNJ-induced currents)
Assay type: cell-based
Details: 3 mM
Experimental: Oocytes were obtained from Nasco (Fort Atkinson, Wisconsin, USA). Stage V–VI oocytes were injected with 50 nl of either human SGLT3 mRNA (at 1 ng/nl) or distilled water (control) and incubated at 18°C in a calcium-free solution (92 mM NaCl, 2 mM KCl, 1 mM MgCl2, 5 mM HEPES, 0.05 mg/ml gentamicin at pH 7.5) for 4–6 days before recording. The extracellular recording solution contained 92 mM NaCl, 2 mM KCl, 1.8 mM CaCl2, 1 mM MgCl2, and 5 mM HEPES at pH 7.5. Injected oocytes were impaled with 2 microelectrodes filled with 3 M KCl (resistance of ∼0.5–3 MΩ) and voltage clamped to −120 mV, at which continuous recordings were made (filtered at 5 kHz and sampled at 625 Hz). To establish the baseline in the absence of agonist, oocytes were first perfused for 85 seconds with a control buffer (92 mM NaCl, 2 mM KCl, 1.8 mM CaCl2, 1 mM MgCl2, 5 mM HEPES at pH 7.5). […] Finally, phlorizin (3 mM) was applied in the presence of 50 µM DNJ for 160 seconds. All experiments were performed at 22°C. Currents in the presence of 50 µM DNJ were subtracted from leak currents (currents in control buffer alone) to obtain DNJ-induced currents (IDNJ). Effects of compounds were calculated as: % Inhibition = 100×(IDNJ−Icmpd)/IDNJ, where Icmpd is the DNJ-induced and leak-subtracted current in the presence of a compound or DMSO. Due to lack of effect at the highest dose tested, a dose-response relationship was not examined.

- inhibition at 3000 µM (SGLT3-injected oocytes, 50 µM DNJ, n = 14, P<0.05): 73.5 ± 4.2%
- effect on currents in sham-injected oocytes (sham (water)-injected oocytes, in the presence of 50 µM DNJ): did not affect currents
Structure (SMILES): O=C(CCc1ccc(O)cc1)c1c(O)cc(O)cc1O[C@@H]1O[C@H](CO)[C@@H](O)[C@H](O)[C@H]1O [phlorizin, reference compound]
